Assay: xn = mol fraction of the nth substance listed
Settings: 101 kPa, Liquid; for viscosity: Capillary tube (Ostwald / Ubbelohde) method; for mass density: Vibrating tube method

CCCCCC(C)O (configuration not stated) [2-heptanol] + NC=O
Settings | mass density, 298.15 K [kg/m3] | mass density, 303.15 K [kg/m3] | mass density, 308.15 K [kg/m3] | mass density, 313.15 K [kg/m3] | viscosity, 298.15 K [mPa·s] | viscosity, 303.15 K [mPa·s] | viscosity, 308.15 K [mPa·s] | viscosity, 313.15 K [mPa·s]
x2 = 0 | 813.38 | 809.5 | 805.72 | 801.46 | 5.296 | 4.315 | 3.535 | 2.96
x2 = 0.0819 | 821.08 | 817.04 | 813.18 | 808.95 | 5.094 | 4.157 | 3.403 | 2.842
x2 = 0.1603 | 829.46 | 825.3 | 821.41 | 817.16 | 4.915 | 4.021 | 3.299 | 2.767
x2 = 0.2402 | 839.28 | 835.08 | 831.16 | 826.89 | 4.744 | 3.905 | 3.219 | 2.718
x2 = 0.3508 | 855.44 | 851.28 | 847.38 | 843.03 | 4.541 | 3.773 | 3.131 | 2.669
x2 = 0.4402 | 871.35 | 867.27 | 863.34 | 858.97 | 4.385 | 3.673 | 3.07 | 2.637
x2 = 0.567 | 900.02 | 895.95 | 891.92 | 887.52 | 4.176 | 3.543 | 2.997 | 2.607
x2 = 0.6525 | 924.85 | 920.66 | 916.51 | 912.11 | 4.035 | 3.459 | 2.952 | 2.593
x2 = 0.7403 | 957.01 | 952.58 | 948.4 | 944.03 | 3.881 | 3.363 | 2.896 | 2.571
x2 = 0.8501 | 1010.97 | 1006.37 | 1002.12 | 997.89 | 3.647 | 3.204 | 2.792 | 2.51
x2 = 0.94 | 1072.96 | 1068.47 | 1064.24 | 1059.95 | 3.446 | 3.069 | 2.701 | 2.455

CCCCC(C)O (configuration not stated) [2-hexanol] + NC=O
Settings | mass density, 298.15 K [kg/m3] | mass density, 303.15 K [kg/m3] | mass density, 308.15 K [kg/m3] | mass density, 313.15 K [kg/m3] | viscosity, 298.15 K [mPa·s] | viscosity, 303.15 K [mPa·s] | viscosity, 308.15 K [mPa·s] | viscosity, 313.15 K [mPa·s]
x2 = 0 | 810.14 | 806.13 | 802.06 | 797.96 | 4.101 | 3.411 | 2.819 | 2.219
x2 = 0.0818 | 818.06 | 814.05 | 809.79 | 805.72 | 4.008 | 3.334 | 2.753 | 2.171
x2 = 0.1638 | 827.12 | 823.03 | 818.79 | 814.58 | 3.918 | 3.276 | 2.711 | 2.16
x2 = 0.2392 | 836.66 | 832.51 | 828.24 | 823.99 | 3.85 | 3.23 | 2.69 | 2.169
x2 = 0.3529 | 853.7 | 849.5 | 845.26 | 841.01 | 3.778 | 3.176 | 2.679 | 2.199
x2 = 0.4439 | 870.39 | 866.2 | 861.95 | 857.71 | 3.744 | 3.187 | 2.686 | 2.235
x2 = 0.5613 | 897.25 | 893.04 | 888.76 | 884.48 | 3.695 | 3.185 | 2.71 | 2.3
x2 = 0.6496 | 922.95 | 918.63 | 914.3 | 909.96 | 3.647 | 3.169 | 2.724 | 2.35
x2 = 0.743 | 957.42 | 953.01 | 948.59 | 944.27 | 3.582 | 3.144 | 2.726 | 2.392
x2 = 0.8502 | 1010.56 | 1006.13 | 1001.67 | 997.41 | 3.479 | 3.078 | 2.695 | 2.406
x2 = 0.9398 | 1072.59 | 1068.37 | 1063.89 | 1059.71 | 3.378 | 3.021 | 2.662 | 2.413

NC=O [formamide] + CC(C)O
Settings | mass density, 298.15 K [kg/m3] | mass density, 303.15 K [kg/m3] | mass density, 308.15 K [kg/m3] | mass density, 313.15 K [kg/m3] | viscosity, 298.15 K [mPa·s] | viscosity, 303.15 K [mPa·s] | viscosity, 308.15 K [mPa·s] | viscosity, 313.15 K [mPa·s]
x1 = 0.0831 | 797.37 | 793.08 | 788.56 | 783.84 | 2.167 | 1.867 | 1.623 | 1.399
x1 = 0.1563 | 813.03 | 808.66 | 803.98 | 799.2 | 2.254 | 1.948 | 1.688 | 1.464
x1 = 0.2377 | 831.8 | 827.33 | 822.51 | 817.62 | 2.382 | 2.064 | 1.791 | 1.567
x1 = 0.3518 | 860.85 | 856.24 | 851.26 | 846.25 | 2.585 | 2.259 | 1.974 | 1.745
x1 = 0.4403 | 885.89 | 881.14 | 876.01 | 871.03 | 2.739 | 2.409 | 2.115 | 1.884
x1 = 0.5371 | 916.34 | 911.48 | 906.38 | 901.3 | 2.888 | 2.556 | 2.256 | 2.026
x1 = 0.6352 | 950.91 | 946.08 | 940.93 | 935.92 | 3.015 | 2.684 | 2.371 | 2.144
x1 = 0.7388 | 992.47 | 987.75 | 982.64 | 977.69 | 3.127 | 2.789 | 2.464 | 2.233
x1 = 0.8497 | 1043.91 | 1039.54 | 1034.66 | 1029.87 | 3.218 | 2.878 | 2.541 | 2.312
x1 = 0.94 | 1092.69 | 1088.45 | 1083.96 | 1079.51 | 3.277 | 2.939 | 2.601 | 2.377
x1 = 1 | 1129 | 1125.1 | 1120.98 | 1116.85 | 3.305 | 2.975 | 2.64 | 2.42

NC=O [formamide] + CCC(C)O
Settings | mass density, 298.15 K [kg/m3] | mass density, 303.15 K [kg/m3] | mass density, 308.15 K [kg/m3] | mass density, 313.15 K [kg/m3] | viscosity, 298.15 K [mPa·s] | viscosity, 303.15 K [mPa·s] | viscosity, 308.15 K [mPa·s] | viscosity, 313.15 K [mPa·s]
x1 = 0.0871 | 815.72 | 811.44 | 807.59 | 802.69 | 3.039 | 2.541 | 2.137 | 1.81
x1 = 0.1597 | 827.26 | 822.99 | 819.07 | 814.17 | 3.048 | 2.561 | 2.158 | 1.836
x1 = 0.2462 | 842.51 | 838.24 | 834.28 | 829.39 | 3.074 | 2.601 | 2.206 | 1.893
x1 = 0.3993 | 874.46 | 870.19 | 866.14 | 861.25 | 3.178 | 2.729 | 2.337 | 2.037
x1 = 0.4397 | 884.15 | 879.88 | 875.81 | 870.92 | 3.207 | 2.763 | 2.372 | 2.078
x1 = 0.5567 | 916.06 | 911.78 | 907.68 | 902.82 | 3.279 | 2.855 | 2.477 | 2.195
x1 = 0.6516 | 947.04 | 942.76 | 938.6 | 933.86 | 3.318 | 2.911 | 2.54 | 2.272
x1 = 0.7376 | 980.23 | 975.94 | 971.72 | 967.08 | 3.336 | 2.945 | 2.582 | 2.324
x1 = 0.8512 | 1033.92 | 1029.63 | 1025.39 | 1020.93 | 3.34 | 2.973 | 2.617 | 2.371
x1 = 0.9309 | 1080.54 | 1076.36 | 1072.19 | 1067.81 | 3.329 | 2.98 | 2.631 | 2.398
x1 = 1 | 1129 | 1125.1 | 1120.98 | 1116.85 | 3.305 | 2.975 | 2.64 | 2.42
